From patent US7589100B2, “Non-hygroscopic and powdery amorphous pimecrolimus” (TEVA Gyógyszergyár Zártkörún Müködö Részvénytársaság, priority 2004, dated 2009)

Assay: Hygroscopicity: water content (LOD) of samples stored at different relative humidity for one week
Type: physicochemical
Excerpt: As used herein, the term “non-hygroscopic” refers to a compound that contains no more than about 2% wt/wt of water, more preferably no more than about 1.5% wt/wt of water, most preferably no more than about 1% wt/wt of water, when exposed to 80% humidity, at room temperature for 1 week. The hygroscopicity of amorphous pimecrolimus of the present invention was examined by measuring the water content in samples stored at different relative humidity value (RH) (0, 40, 60, and 80 percent) for a period of one week.

SMILES: CC[C@@H]1/C=C(\C)C[C@H](C)C[C@H](OC)[C@H]2O[C@@](O)(C(=O)C(=O)N3CCCC[C@H]3C(=O)O[C@H](/C(C)=C/[C@@H]3CC[C@H](Cl)[C@H](OC)C3)[C@H](C)[C@@H](O)CC1=O)[C@H](C)C[C@@H]2OC [Pimecrolimus, (1R,9S,12S,13R,14S,17R,18E,21 S,23S,24R,25S,27R)-12-[(1E)-2-{(1R,3R,4S)-4-chloro-3-methoxycyclohexyl}-1-methylvinyl]-17-ethyl-1,14-dihydroxy-23,25-dimethoxy-13,19,21,27-tetramethyl-11,28-dioxa-4-aza-tricyclo[22.3.1.0^4,9]octacos-18-ene-2,3,10,16-tetraone]
- hygroscopicity (result in words) (RH 0 to 80 percent, one week): non-hygroscopic
- LOD (%) (original sample, before storage): 1.1%
- LOD (%) (stored at RH 0 % for one week): 0.8%
- LOD (%) (stored at RH 40 % for one week): 1.1%
- LOD (%) (stored at RH 60 % for one week): 1.1%
- LOD (%) (stored at RH 80 % for one week): 1.1%
- water content of the samples (stored at relative humidity from about 0 percent to about 80 percent, one week): about 1%
